Consider eleven compounds from PubChem BioAssay (NCI).

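Exposure lasted 48 hours, with cells grown in 96-well plates and compounds tested at five concentrations. At the GI50, growth is halved. TGI marks complete inhibition of growth.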 Some results are limits rather than exact numbers.

Holding throughout (experiment): NCI anticancer screen, dose series, 48 h
In test [1] the test system is 786-0 renal.
Test [2] has as its system A549 NSCLC.
Test [3] concerns HCT-116 colon.
Test [4] deals with HT29 colon.
Test [5] relates to NCI-H23 lung.
The subject of test [6] is OVCAR-8 ovarian.
Test [7] relates to RXF 393 renal.
The test system of test [8] is SK-MEL-5 melanoma.
In test [9] the test system is SK-OV-3 ovarian.
The test system of test [10] is U251 CNS.

Turning to `COc1ccc(-n2cc(-c3ccc(Cl)cc3)[nH]c2=S)cc1Cl`, the GI50 in [1] is 20 µM; in test [2] it was 46.6 µM; in [3], 47.2 µM; in test [4], 74.2 µM; in test [5] it was 84.4 µM; in test [6], 37.4 µM. The GI50 is 25.6 µM in test [7], 42.1 µM in test [8], 23.6 µM in test [9] and 32.3 µM in test [10]. Besides, the TGI in test [1] was 41.4 µM; in test [2], greater than 100 µM; in test [3], greater than 100 µM; in test [4], greater than 100 µM; in test [5], greater than 100 µM; in [6], greater than 100 µM. Moreover, the TGI in test [7] is 54.1 µM; in test [8], greater than 100 µM; in test [9] it was 52.6 µM; in test [10], greater than 100 µM.
`COC(=O)CC[C@@H](NC(=O)C(C)NC(=O)COC1C(O)C(COC(=O)CCCCCCCCCCNC(=O)c2ccc([N+](=O)[O-])c3[nH]c4cc(Br)ccc4c(=O)c23)OC(OCc2ccccc2)C1NC(C)=O)C(N)=O` (stereo partly drawn): the TGI in [1], in test [2], in test [3], in [4], in [5] and in test [6] was greater than 100 µM each time. The TGI in test [7] is 80.3 µM; in test [8], greater than 100 µM; in test [9], greater than 100 µM; in [10] it was greater than 100 µM.
On to `NNC(=S)N/N=C(\c1nc2ccc(Cl)cc2[nH]c1=O)C(O)c1ccc(Cl)cc1Cl` (stereo not drawn), for which the TGI in test [1], in test [2], in [3], in [4], in test [5] and in [6] was greater than 100 µM each time. Further, the TGI in [7], in [8], in test [9] and in test [10] was greater than 100 µM throughout.
Turning to `Cc1ccc(NC(=O)C(=O)C2C(=O)C3=C(CC2(C)C)NC2C=CC=CC2S3)c(C)c1` (stereo not drawn), the TGI in test [1], in test [2], in [3], in [4], in test [5] and in test [6] was greater than 100 µM in each case. The TGI in [7], in [8], in test [9] and in test [10] was greater than 100 µM each time.
As to `COc1cc2c(cc1OC)[C@@H]1[C@H](C2=O)c2ccc([N+](=O)[O-])cc2C(=O)N1CCCBr`, the GI50 was less than 0.0489 µM in test [1]; less than 0.01 µM in test [3]; 0.35 µM in test [4]; less than 0.01 µM in [5]; 0.0169 µM in [6]; 0.285 µM in test [7]. The results for the GI50 in [8], in [9] and in [10] were less than 0.01 µM, 1.32 µM and 0.134 µM, respectively. Besides, the TGI in test [1] was found to be 0.285 µM; in test [2], 4.02 µM; in test [3] it was 0.0133 µM; in test [5], 1.8 µM; in test [6], 2.04 µM; in test [7], 2.22 µM. The TGI in test [8] was 0.123 µM; in [9] it was greater than 100 µM; in test [10] it was 1.39 µM.
Regarding `O=C(O)/C=C/C(=O)Nc1cccc2c1-c1ccccc1C2=O`, the TGI was greater than 100 µM in test [1]; greater than 100 µM in test [2]; greater than 100 µM in test [3]; greater than 91.9 µM in test [4]; greater than 100 µM in test [5]; greater than 100 µM in test [6]. For the same compound, the TGI is greater than 55 µM in test [7], greater than 100 µM in [8], greater than 100 µM in [9] and greater than 57.5 µM in test [10].
In the case of `O=C(O)C(=O)/C=C\c1ccc(Cl)cc1`, the TGI in test [1], in test [2], in [3], in [4], in [5] and in [6] was greater than 100 µM in each case. Also, the TGI in test [7], in test [8], in test [9] and in [10] was greater than 100 µM each time.
As to `O=C(NCCc1ccccc1)C(c1csc2ccccc12)N(C(=O)CCl)c1ccc(-c2cnco2)cc1` (stereo not drawn), the GI50 in test [1] is 0.0197 µM; in test [2] it was 0.393 µM; in [3] it was 0.889 µM; in test [4], 0.257 µM; in [5], 0.0209 µM; in test [6] it was 0.169 µM. For the same compound, the GI50 in [7] was 0.145 µM; in test [8], 1.62 µM; in test [9], 1.25 µM; in test [10], 0.163 µM. Further, the TGI in test [1] turned out to be 0.038 µM; in test [2], 1.64 µM; in test [3], 2.37 µM; in [4] it was 1.06 µM; in test [5], 0.0508 µM; in test [6], 1.28 µM. In addition, the TGI in test [7] came out at 0.587 µM; in [8] it was 3.01 µM; in [9] it was 2.69 µM; in [10], 0.644 µM.
With `CC(=O)OCC1OC(n2c(-c3ccc(N)cc3)cc(-c3ccco3)c(C#N)c2=O)C(OC(C)=O)C(OC(C)=O)C1OC(C)=O` (stereo not drawn), the TGI in test [1], in test [2], in [3], in [4], in test [5] and in test [6] was greater than 50 µM throughout. Further, the TGI was greater than 50 µM in test [7], greater than 50 µM in test [8], greater than 50 µM in test [9] and 29.8 µM in test [10].
For `COC(=O)C1=C(SC)SC2(C(=O)OC)C3C=C(C)C4C(N13)C42C(=O)OC` (stereo not drawn), the TGI in test [1], in test [2], in test [3], in test [4], in test [5] and in test [6] was greater than 100 µM each time. For the same compound, the TGI in test [7], in test [8], in test [9] and in [10] was greater than 100 µM throughout.
Take `N#CC1(Cc2ccccc2Cl)c2ccccc2C=CN1C(=O)c1ccccc1` (stereo not drawn): the TGI in test [1], in test [2], in [3], in test [4], in [5] and in test [6] was greater than 100 µM each time. For the same compound, the TGI in [7], in test [8], in test [9] and in test [10] was greater than 100 µM each time.
